In assay [1] the test system is Shionogi mouse mammary carcinoma cells. In words: Androgenic activity: stimulation of proliferation of Shionogi cells. Format: cell-based. Conditions: for Androgenic Activity Shionogi, Basal E^−6 / Androgenic Activity Shionogi, Basal E^−7: Table 4′. A digest of the protocol: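 Values are the percent stimulation of cell number, measured by Coulter counter, after 10–12 days of exposure to 10^−7 M or 10^−6 M compound. Androgen-sensitive Shionogi cells were seeded at 20 000 cells/well in triplicate in dextran-charcoal-treated FCS medium, refreshed every 3–4 days.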

The subject of assay [2] is progesterone receptor. In words: Progesterone receptor assay: inhibition of [3H]R5020 binding, uterine cytosol. More on the design: species or system rat. The conditions noted are these: for % Inhibition Progesterone Receptor E^−6 / % Inhibition Progesterone Receptor E^−8: Table 4′. How it is done:
The manner in which the percentage of inhibition is determined is described in “Other Tests; E-Progesterone Receptor Assay”. Lower numbers are desirable.
[17α-methyl-^3H]-promegestone (R5020) (84 Ci/mmol) and the corresponding unlabeled compound were purchased from New England Nuclear (Lachine, Québec, Canada). All other chemicals were of analytical grade.
Stock solutions of the unlabeled steroids were kept at 4° C. in ethanol. The desired steroid solutions were then prepared by appropriate dilution in buffer B (10 mM Tris-HCl, 1.5 mM EDTA, 10 mM α-monothioglycerol, pH 7.4) containing 30% ethanol.
Female Sprague-Dawley rats weighing 200-300 g were obtained from Charles-River Inc. (St-Constant, Québec, Canada). The rats were gonadectomized under general anesthesia (Isoflurane) and killed by cervical dislocation 24 hours later. The uteri are rapidly removed, dissected free from adhering tissue and frozen on dry-ice. Tissues were kept at −80° C. until use.
All procedures were performed at 4° C. Tissues were pulverized frozen in dry ice with a Thermovac pulverizer. The samples were then homogenized in 10 vol (w/v) of buffer A (25 mM Tris-HCl, 1.5 mM EDTA, 10 mM α-monothioglycerol, 10% glycerol, 10 mM sodium molybdate, pH 7.4) using a Polytron PT-10 homogenizer (Brinkmann Instruments, Canada) at a setting of 5 for two periods of 10 sec, with intervals of 10 sec for cooling. The homogenate was then centrifuged at 105,000×g for 90 min. The supernatant was used immediately for assay.
Progesterone binding was measured using the dextran-coated charcoal adsorption technique. […] Each concentration was done in triplicate. Assay was ended with 300 μl of DCC (1% Norit A and 0.1% Dextran T-70 in Buffer B). After 10 min of incubation, tubes were centrifuged at 2,000×g for 10 min. and decanted in vials with 6 ml of BCS liquid scintillation (New England Nuclear, Dupont). The radioactivity was measured in a Beckman counter at a counting efficiency of 35%.

For the molecule `CC1(C)CCC2(CCC3C4CCc5cc(O)c([N+](=O)[O-])cc5C4CCC32C)OC1=O` (stereo not shown) [EM-1125-CS], the “Androgenic Activity Shionogi, Basal E^−6” value in assay [1] (E^−6) is −10%. In addition, in assay [1] (E^−7), the “Androgenic Activity Shionogi, Basal E^−7” value stood at 3%. Besides, in assay [2] (E^−6), the “% Inhibition Progesterone Receptor E^−6” value is listed as 7%. For the same molecule, in assay [2] (E^−8), the “% Inhibition Progesterone Receptor E^−8” value worked out at 5%.

Consider `COCCOc1cc2c(cc1C(=O)O)C1CCC3(C)C(CCC34CCC(C)(C)C(=O)O4)C1CC2` [EM-1405, 2-Carboxy-3-(2″-methoxyethyloxy)-1,3,5(10)-estratrien-17(R)-spiro-2′-(5′,5′-dimethyl-6′-oxo)tetrahydropyran], for which the “Androgenic Activity Shionogi, Basal E^−6” value in assay [1] (E^−6) is recorded as 0%. Also, in assay [1] (E^−7), the “Androgenic Activity Shionogi, Basal E^−7” value is on record as 0%. For the same molecule, the “% Inhibition Progesterone Receptor E^−6” value in assay [2] (E^−6) came out at 0%. The “% Inhibition Progesterone Receptor E^−8” value in assay [2] (E^−8) was 0%.

As for `COc1ccc2c(c1)CCC1C2CCC2(C)C1CCC21CCC(C)(C)C(=O)O1` (stereo not shown) [EM-1370], in assay [1] (E^−6), the “Androgenic Activity Shionogi, Basal E^−6” value was −11%. The “Androgenic Activity Shionogi, Basal E^−7” value in assay [1] (E^−7) is 12%. In addition, the “% Inhibition Progesterone Receptor E^−6” value in assay [2] (E^−6) is 0%. Moreover, the “% Inhibition Progesterone Receptor E^−8” value in assay [2] (E^−8) is recorded as 0%.

On to `COc1c(Br)cc2c(c1Br)CCC1C2CCC2(C)C1CCC21CCC(C)(C)C(=O)O1` (stereo not shown) [EM-1385-CS], for which, in assay [1] (E^−6), the “Androgenic Activity Shionogi, Basal E^−6” value was −28%. For the same molecule, the “Androgenic Activity Shionogi, Basal E^−7” value in assay [1] (E^−7) is given as −11%. Also, the “% Inhibition Progesterone Receptor E^−6” value in assay [2] (E^−6) is 2%. Besides, the “% Inhibition Progesterone Receptor E^−8” value in assay [2] (E^−8) is on record as 2%.

As for `CC(=O)[C@@]1(OC(=O)CCCCF)CCC2C3C=C(C)C4=CC(=O)CC[C@]4(C)C3CC[C@@]21C` (stereo partly shown) [EM-1195-CS], the “Androgenic Activity Shionogi, Basal” value in assay [1] (E^−6) was −34; in assay [1] (E^−7), −27. For the same molecule, the “% Inhibition Progesterone Receptor” value in assay [2] (E^−6) is 70%; in assay [2] (E^−8), 0%.

As for `COc1ccc(CC(=O)O[C@]2(C(C)=O)CCC3C4C=C(C)C5=CC(=O)C=C[C@]5(C)C4CC[C@@]32C)cc1` (stereo partly shown) [EM-1291], the “Androgenic Activity Shionogi, Basal” value is −44 in assay [1] (E^−6) and −8 in assay [1] (E^−7). The “% Inhibition Progesterone Receptor” value in assay [2] (E^−6) came to 33%; in assay [2] (E^−8), 0%.

Regarding `CCCCN(C)C(=O)[C@@]1(OC(C)=O)CCC2C3C=C(C)C4=CC(=O)CC[C@]4(C)C3CC[C@@]21C` (stereo partly shown) [EM-1165], the “Androgenic Activity Shionogi, Basal” value in assay [1] (E^−6) was −17; in assay [1] (E^−7), 5. The results for the “% Inhibition Progesterone Receptor” value in assay [2] (E^−6) and in assay [2] (E^−8) were 7% and 0%, respectively.

For `CC1(C)CCC2(CCC3C4CCc5cc(OCCN6CCCCC6)ccc5C4CCC32C)OC1=O` [EM-1390-CS, 3-(N-piperidyl-ethyl)-1,3,5(10)-estratrien-17(R)-spiro-2′-(5′,5′-dimethyl-6′-oxo)-tetrahydropyran], the “Androgenic Activity Shionogi, Basal E^−6” value in assay [1] (E^−6) is −43%. In addition, the “Androgenic Activity Shionogi, Basal E^−7” value in assay [1] (E^−7) was −18%. The “% Inhibition Progesterone Receptor E^−6” value in assay [2] (E^−6) is listed as 2%. In addition, the “% Inhibition Progesterone Receptor E^−8” value in assay [2] (E^−8) is reported as 0%.

In the case of `COCCOc1cc2c(cc1C(F)(F)F)[C@H]1CC[C@@]3(C)[C@@H](CC[C@@]34CCC(C)(C)C(=O)O4)[C@@H]1CC2` [EM-1438, 3-(2′-Methoxyethoxy)-2-trifluoromethyl-1,3,5(10)-estratrien-17(R)-spiro-2′-(5′,5′-dimethyl-6′-oxo)tetrahydropyran], the “Androgenic Activity Shionogi, Basal E^−6” value in assay [1] (E^−6) was −14%. Moreover, the “Androgenic Activity Shionogi, Basal E^−7” value in assay [1] (E^−7) is on record as 10%. Also, the “% Inhibition Progesterone Receptor E^−6” value in assay [2] (E^−6) was found to be 0%. The “% Inhibition Progesterone Receptor E^−8” value in assay [2] (E^−8) is 0%.

As to `COCCOc1ccc2c(c1)C(=O)CC1C2CCC2(C)C1CCC21CCC(C)(C)C(=O)O1` (stereo not shown) [EM-1408-CS], the “Androgenic Activity Shionogi, Basal E^−6” value in assay [1] (E^−6) is listed as −12%. For the same molecule, the “Androgenic Activity Shionogi, Basal E^−7” value in assay [1] (E^−7) turned out to be 0%. For the same molecule, the “% Inhibition Progesterone Receptor E^−6” value in assay [2] (E^−6) stood at 0%. In assay [2] (E^−8), the “% Inhibition Progesterone Receptor E^−8” value is on record as 0%.

The record behind these values is patent publication US6541463B1, “Inhibitors of type 5 and type 3 17β-hydroxysteroid dehydrogenase and methods for their use” (Endorecherche, Inc., priority 1998, dated 2003).
